From US12667570B2, “Small molecule modulators of KSR-bound MEK” (Icahn School of Medicine at Mount Sinai, priority 2020, dated 2026)
Each block holds one compound with its values, some of them ahead of it.

Assays:
BRAF-MEK1 complex [1] = biological target: T1, BRAF-MEK1 complex (Homo sapiens, UniProt P15056+Q02750); assay: Co-immunoprecipitation via endogenous MEK1 from HCT116 cells, BRAF; type: cell-based; conditions: 200 nM, 1 hour, relative to DMSO
T1 construct: IP/WB of endogenous MEK1 from HCT116 cells; endogenous in cells; host or cells: HCT116

KRAS-G12S A549 cells = assay: Long-term clonogenic assay; type: cell-based, human; conditions: 10 nM final concentration, in comparison to amide-linker compounds (1, 3)
Experimental: Cells were plated at a density of 6,000 cells per well in 6-well plates in 3 mL of culture medium. Twenty-four hours after seeding, compounds dissolved in DMSO or DMSO-only vehicles were added directly to the culture media at a 1:1000 dilution. Following 10 days of culture, cells were washed 2× in PBS, fixed in ice-cold methanol for 10 minutes, stained with crystal-violet at room temperature for 10 minutes, and subsequently washed three times in water. Plates were allowed to dry overnight before imagining with an Epson V600 scanner.

isolated MEK1 = biological target: T2, isolated MEK1 (Oryctolagus cuniculus, UniProt P29678, S298N/S299K/Y300F); assay: Bio-layer interferometry (BLI), isolated MEK1; type: binding, rabbit; conditions: read-out: dissociation constant (KD), isolated MEK1
T2 construct: rabbit MEK1 (residues 35-393; Uniprot ID: P29678); hexahistidine tag with TEV-cleavage site (N); made in house; host or cells: SF21 insect cells (baculovirus)
T2 sequence (P29678 35-393 S298N/S299K/Y300F): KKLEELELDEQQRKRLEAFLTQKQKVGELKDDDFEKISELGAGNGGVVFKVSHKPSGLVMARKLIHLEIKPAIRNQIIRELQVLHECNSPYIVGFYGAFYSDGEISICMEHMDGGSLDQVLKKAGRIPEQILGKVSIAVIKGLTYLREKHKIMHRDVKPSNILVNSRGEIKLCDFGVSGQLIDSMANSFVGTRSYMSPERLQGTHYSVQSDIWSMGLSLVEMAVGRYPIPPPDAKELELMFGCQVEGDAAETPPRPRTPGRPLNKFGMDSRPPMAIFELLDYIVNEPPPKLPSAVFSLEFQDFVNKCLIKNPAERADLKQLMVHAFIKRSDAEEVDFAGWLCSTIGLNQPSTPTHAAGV
Experimental: (§1) BLI measurements were performed using an Octet Red96 (Forte Bio, Inc.) system. All experiments were conducted at 25° C. with shaking at 1000 rpm, and in a buffer containing 20 mM Hepes pH 7.5, 200 mM NaCl, 1 mM ATP, 5 mM MgCl2, 0.02% Tween-20, 1% DMSO. […] This amount of immobilization typically achieved 1.5-2.0 nm binding signal. Biosensors were then washed in buffer, treated in a solution of biocytin for 3 min, and then again washed extensively to achieve a normalized baseline signal of ˜0 nm. Following, for kinetic analysis, biosensors were dipped in solutions of free MEK1, BRAF:MEK1, KSR1:MEK1, or KSR2:MEK1. Association was measured for 10 or 15 minutes, following a dissociation phase in buffer of 15 minutes. […] All experiments were performed at least three independent times, with raw data processed and analyzed using global fit binding models in Fortebio software to derive KD (M), Kon(1/M·s), and Kdis (1/s) values. […] One-to-one binding models provided a high agreement with the measured binding signals based on chi-squared and R-squared values. Raw data and fitting, mean and standard deviation determinations, as well as statistical analysis, for KD, kon(1/M·s), kdis(1/s), and τ(min) are included in FIG. 71.

BRAF-MEK1 = biological target: T3, BRAF-MEK1 (Oryctolagus cuniculus, UniProt P29678, S298N/S299K/Y300F); assay: Bio-layer interferometry (BLI), BRAF-MEK1; type: binding, human BRAF; rabbit MEK1; conditions: read-out: dissociation constant (KD), MEK1-BRAF
T3 construct: human BRAF (residues 432-726; Uniprot ID: P15056); rabbit MEK1 (residues 35-393; Uniprot ID: P29678); hexahistidine tag with TEV-cleavage site (N); made in house; host or cells: SF21 insect cells (baculovirus)
T3 sequence (P29678 35-393 S298N/S299K/Y300F): as above
Experimental: as §1

KSR1-MEK1 = biological target: T4, KSR1-MEK1 (UniProt P29678+Q8IVT5, S298N/S299K/Y300F); assay: Bio-layer interferometry (BLI), KSR1-MEK1; type: binding, human KSR1; rabbit MEK1; conditions: read-out: dissociation constant (KD), KSR1-MEK1
T4 construct: human KSR1 (residues 591-899; Uniprot ID:Q8IVT5); rabbit MEK1 (residues 35-393; Uniprot ID: P29678); hexahistidine tag with TEV-cleavage site (N); made in house; host or cells: SF21 insect cells (baculovirus)
T4 sequence (Q8IVT5 591-899): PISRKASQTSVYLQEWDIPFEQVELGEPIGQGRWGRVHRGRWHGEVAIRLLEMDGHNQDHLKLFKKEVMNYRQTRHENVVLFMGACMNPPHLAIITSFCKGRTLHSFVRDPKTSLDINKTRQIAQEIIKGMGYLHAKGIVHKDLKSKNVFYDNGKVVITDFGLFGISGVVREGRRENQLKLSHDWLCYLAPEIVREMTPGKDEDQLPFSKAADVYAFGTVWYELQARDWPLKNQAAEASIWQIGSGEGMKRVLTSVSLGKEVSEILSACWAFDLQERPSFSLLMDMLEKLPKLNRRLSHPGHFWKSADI
T4 sequence (P29678 35-393 S298N/S299K/Y300F): as the sequence (P29678 35-393 S298N/S299K/Y300F) above
Experimental: as §1

KSR2-MEK1 = biological target: T5, KSR2-MEK1 (UniProt P29678+Q6VAB6, S298N/S299K/Y300F); assay: Bio-layer interferometry (BLI), KSR2-MEK1; type: binding, human KSR2; rabbit MEK1; conditions: read-out: dissociation constant (KD), KSR2-MEK1
T5 construct: human KSR2 (residues 634-950; Uniprot ID: Q6VAB6); rabbit MEK1 (residues 35-393; Uniprot ID: P29678); hexahistidine tag with TEV-cleavage site (N); made in house; host or cells: SF21 insect cells (baculovirus)
T5 sequence (Q6VAB6 634-950): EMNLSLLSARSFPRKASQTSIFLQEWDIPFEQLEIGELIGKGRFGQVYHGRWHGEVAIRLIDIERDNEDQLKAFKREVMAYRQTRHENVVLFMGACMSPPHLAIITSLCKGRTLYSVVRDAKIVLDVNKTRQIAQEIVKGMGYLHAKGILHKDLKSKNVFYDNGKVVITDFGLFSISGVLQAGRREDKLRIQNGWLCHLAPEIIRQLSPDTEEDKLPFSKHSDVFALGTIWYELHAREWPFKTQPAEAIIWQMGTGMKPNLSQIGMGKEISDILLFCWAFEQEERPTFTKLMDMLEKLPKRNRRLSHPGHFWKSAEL
T5 sequence (P29678 35-393 S298N/S299K/Y300F): as the sequence (P29678 35-393 S298N/S299K/Y300F) above
Experimental: as §1

[2] = biological target: T6, mouse KSR1-luc (KSR-bound MEK) (UniProt Q02750+Q61097); assay: NanoBRET in-cell steady-state IC50 (competition with tram-bo tracer), KSR1-luc; type: binding
T6 construct: expressed in transfected cells; host or cells: HEK293T

HCT 116 = assay: Cell proliferation / viability assay under low-adherence conditions; type: cell-based, human
Experimental: A375, A549, HCT116, and SKMEL-239 cells were plated in Corning Costar Ultra-Low Attachment 96-well plates (Reference number 3434). After 24 hours of incubation at 37° C., cells were treated with inhibitors (0.1% DMSO in final volume). Cells were grown for five days, and resazurin sodium salt was added at a final concentration of 0.01 μg/μL. Fluorescence was measured using a Molecular Devices SpectraMax M5 spectrophotometer after a 4-24-hour incubation with resazurin solution. Technical triplicate values were averaged for each experiment, and biological replicate values are represented as average+/−standard deviation. For each cell line, log EC50 values of inhibitors were statistically compared using the extra sum-of-squares F test in GraphPad Prism 8 (FIG. 57, 58, 67, 68, 69).

MEK1 and MEK2 [3] = assay: In vitro kinase profiling, direct binding assays, MEK1/MEK2; conditions: 1 μM
Excerpt: (§2) FIG. 65 Trametiglue targets both KSR-MEK and RAF-MEK with unprecedented potency and selectivity via unique interfacial binding interactions.

isolated BRAF or CRAF = assay: In vitro kinase profiling, direct binding assays, BRAF/CRAF; conditions: 1 μM
Excerpt: as §2

MEK1 and MEK2 [4] = assay: In vitro substrate phosphorylation assays, MEK1/MEK2; type: biochemical; conditions: panel of active kinases
Excerpt: as §2

[5] = system: BRAF and CRAF phosphorylation of MEK1; assay: In vitro phosphorylation of MEK1 by upstream kinases; type: biochemical; conditions: MEK1 as substrate
Excerpt: as §2

[6] = system: phosphorylated ERK1/2 at residues T202 and Y204 (pERK); assay: Immunoblot of RAS/ERK pathway inhibition; type: cell-based, human; conditions: 1 hour, increasing concentrations
Experimental: Cells were plated at a density of 300,000 cells per well in 6-well plates in 2 mL of culture medium. 24 hours after seeding, cells were treated with compounds or DMSO at a 1:1000 dilution (0.1% DMSO in final volume). […] Samples were normalized to a protein content of 5 μg/μL in 100 μL total volume, and 20 μL of 6×SDS was added. […] Transfers were confirmed using ponceau red, washed, and then blocked for 1 hour with 5% BSA TBS-T, prior to overnight incubation with primary antibodies including phospho-ERK1/2 T202/Y204 and total ERK1/2 (Cell Signaling Technologies (CST) 9101S and 4695S, respectively) in 5% BSA TBS-T. The next day, blots were washed extensively, and incubated in secondary antibody (Anti-Rabbit IgG HRP-Linked CST 7074S).

human KSR1-luc = biological target: T7, human KSR1-luc (Homo sapiens, UniProt Q02750+Q8IVT5); assay: Tram-bo BRET buildup curves, KSR1-luc; type: binding
T7 construct: expressed in transfected cells; host or cells: HEK293T
Experimental: (§3) Human c-terminal NanoLuc fusions versions of ARAF (Uniprot P10398), BRAF (UniProt P15056), CRAF (Uniprot P04049), KSR1 (Uniprot Q8IVT5), and KSR2 (Uniprot Q6VAB6) were transfected as mentioned above at a concentration of 0.1 μg/mL in combination with 9.9 μg/mL of carrier DNA. All RAF constructs from Promega. […] A 20× tram-bo solution was added to each well to give final concentrations of 4, 1, 0.5, 0.1, 0.05, 0.01, 0.001, 0.0001 μM. […] All data were analyzed using Prism 8 (GraphPad).

human KSR2-luc = biological target: T8, human KSR2-luc (Homo sapiens, UniProt Q02750+Q6VAB6); assay: Tram-bo BRET buildup curves, KSR2-luc; type: binding
T8 construct: expressed in transfected cells; host or cells: HEK293T
Experimental: as §3

[7] = system: ARAF-luc, BRAF-luc, and CRAF-luc; assay: Tram-bo BRET buildup curves, RAF family; type: binding, human; conditions: in cells
Experimental: as §3

KSR1-luc (KSR-bound MEK) = KSR1-luc (KSR-bound MEK) (UniProt Q02750+Q61097); assay: NanoBRET washout experiment, intracellular residence time, KSR1-luc; type: binding, mouse; conditions: BRET build-up with 1 μM tram-bo, […] time course
Experimental: (§4) Specifically, transfections of MEK1-luc and KSR1-luc, and construction of the drug transfer plates were carried out as mentioned above. For washout experiments, cells were first removed from adherent plates by trypsin treatment. Following, cells were harvested, spun, and resuspended in Opti-MEM (270 μL total) in centrifuge tubes at 450,000 cells/tube.

MEK1-luc [8] = biological target: T9, MEK1-luc (Homo sapiens, UniProt Q02750); assay: NanoBRET washout experiment, intracellular residence time, MEK1-luc; type: binding; conditions: BRET build-up with 1 μM tram-bo, […] time course
Experimental: as §4

BRAF-MEK1 complex [9] = biological target: BRAF-MEK1 complex (Homo sapiens, UniProt P15056+Q02750, R662A); assay: Co-immunoprecipitation via endogenous MEK1 from HCT116 cells, BRAF; type: cell-based; conditions: 200 nM, 1 hour
KSR1-MEK1 complex = KSR1-MEK1 complex (UniProt Q02750+Q61097, P775N); assay: Co-immunoprecipitation via endogenous MEK1 from HCT116 cells, FLAG-KSR1; type: cell-based, mouse KSR1; conditions: 200 nM, 1 hour
MEK1-luc [10] = biological target: T9, MEK1-luc; assay: NanoBRET in-cell steady-state IC50 (competition with tram-bo tracer), MEK1-luc; conditions: IC50 MEK1-luc versus KSR1-luc
[11] = HCT 116, low-adherence conditions
[12] = BRET buildup, increasing tram-bo

Compound: CNS(=O)(=O)Nc1nccc(Cc2c(C)c3ccc(Oc4ncccn4)cc3oc2=O)c1F [CH5126766]
- pulldown of wild-type BRAF via endogenous MEK1 (BRAF-MEK1 complex [1]): enhances interactions between endogenous BRAF and MEK1

Compound: Cc1c(=O)n(C)c(Nc2ccc(I)cc2F)c2c(=O)n(C3CC3)c(=O)n(-c3cccc(NS(=O)(=O)NC4CC4)c3)c12 [compound 5, N-(3-(3-cyclopropyl-5-((2-fluoro-4-iodophenyl)amino)-6,8-dimethyl-2,4,7-trioxo-3,4,6,7-tetrahydropyrido[4,3-d]pyrimidin-1(2H)-yl)phenyl)cyclopropylaminosulfonamide]
- growth inhibition in clonogenic assay (KRAS-G12S A549 cells): enhanced and durable growth inhibition

Compound: CCN(C)S(=O)(=O)Nc1cccc(-n2c(=O)n(C3CC3)c(=O)c3c(Nc4ccc(I)cc4F)n(C)c(=O)c(C)c32)c1 [compound 6, N-(3-(3-cyclopropyl-5-((2-fluoro-4-iodophenyl)amino)-6,8-dimethyl-2,4,7-trioxo-3,4,6,7-tetrahydropyrido[4,3-d]pyrimidin-1(2H)-yl)phenyl)-N′-ethyl(methyl)sulfonamide 2,2,2-trifluoroacetate]
- growth inhibition in clonogenic assay (KRAS-G12S A549 cells): enhanced and durable growth inhibition

Compound: O=C(c1ccc(F)c(F)c1Nc1ccc(I)cc1F)N1CC(O)([C@@H]2CCCCN2)C1 [cobimetinib]
- IC50 on KSR1-luc compared with MEK1-luc ([2]; competition of tram-bo): more potent IC50 values on KSR1-luc over MEK1-luc
- dissociation kinetics after washout on KSR1-luc (KSR1-luc (KSR-bound MEK)): dissociated more readily
- dissociation kinetics after washout on MEK1-luc (MEK1-luc [8]): dissociated more readily
- pulldown of BRAF mutant B2 (R662A) via endogenous MEK1 (BRAF-MEK1 complex [9]): did not alter complex stability
- pulldown of KSR1 mutant K1 (P775N) via endogenous MEK1 (KSR1-MEK1 complex): did not alter complex stability
- difference in potency between KSR1-luc and MEK1-luc (MEK1-luc [10]): ~20 fold

Continued, in another order:

- Kd (isolated MEK1): 131 ± 9.4 nM
- Kd (BRAF-MEK1): 217 ± 3.2 nM
- Kd (KSR1-MEK1): 63.9 ± 4.7 nM
- Kd (KSR2-MEK1): 70.4 ± 4.4 nM
Compound: CC(=O)Nc1cccc(-n2c(=O)n(C3CC3)c(=O)c3c(Nc4ccc(I)cc4F)n(C)c(=O)c(C)c32)c1 [trametinib]

- IC50 (HCT 116; Homo sapiens, HCT-116, 120 h, low-adherence conditions, five days): 0.07 ± 0.04 nM
- pulldown of wild-type BRAF via endogenous MEK1 (BRAF-MEK1 complex [1]): markedly enhanced capture of BRAF
- selectivity in kinase binding experiments (MEK1 and MEK2 [3]): strong selectivity towards MEK1 and MEK2
- direct interaction with isolated BRAF or CRAF (isolated BRAF or CRAF): no direct interactions
Compound: CNS(=O)(=O)Nc1cccc(-n2c(=O)n(C3CC3)c(=O)c3c(Nc4ccc(I)cc4F)n(C)c(=O)c(C)c32)c1 [trametiglue, N-(3-(3-Cyclopropyl-5-((2-fluoro-4-iodophenyl)amino)-6,8-dimethyl-2,4,7-trioxo-3,4,6,7-tetrahydropyrido[4,3-d]pyrimidin-1(2H)-yl)phenyl)methylaminosulfonamide]
- potency and off-rate kinetics compared with trametinib ([2]; KSR-luc or MEK-luc reporters, steady-state and washout): retained similar potency and off-rate kinetics as trametinib
- improvement in potency relative to CH5126766 (HCT 116; [11]): ~200 fold
- improvement in potency relative to trametinib (HCT 116; [11]): approximately 7 fold
- inhibition of MEK1 and MEK2 substrate phosphorylation (MEK1 and MEK2 [4]): inhibited MEK1 and MEK2
- inhibition of MEK1 phosphorylation by upstream kinases [5]: inhibition of both BRAF and CRAF phosphorylation of MEK1
- growth inhibition in clonogenic assay (KRAS-G12S A549 cells): enhanced and durable growth inhibition
- inhibition of RAS-MAPK signaling measured by pERK, relative to trametinib [6]: higher potency inhibitor of RAS-MAPK signaling

- binding to KSR1-luc relative to ARAF-luc, BRAF-luc and CRAF-luc (human KSR1-luc; [12]): ~10 fold
- BRET binding signal, KSR1-luc (human KSR1-luc; in cells): strong BRET binding signals
- binding to KSR2-luc relative to ARAF-luc, BRAF-luc and CRAF-luc (human KSR2-luc; [12]): ~10 fold
- BRET binding signal, KSR2-luc (human KSR2-luc; in cells): strong BRET binding signals
Compound: Cc1c(=O)n(C)c(Nc2ccc(I)cc2F)c2c(=O)n(C3CC3)c(=O)n(-c3cccc(NC(=O)CCOCCOCCNC(=O)CCC4=[N+]5C(=Cc6ccc(-c7ccc[nH]7)n6[B-]5(F)F)C=C4)c3)c12 [tram-bo]
- BRET signal, ARAF-luc, BRAF-luc, CRAF-luc [7]: much weaker BRET signals
